Test results taken from US20180008587A1, “THIOHYDANTOIN ANDROGEN RECEPTOR ANTAGONISTS FOR THE TREATMENT OF CANCER” (Jaressen Pharmaceutica NV, priority 2016, published 2018).
Where a chain is given by its changes, count along the chain named. pEC50: −log10 of the molar value. Read-outs that look alike come from different tables or passages of the source.

Tests used:
Assay type in all cases: cell-based
[1] = target: T1, wild-type Androgen Receptor (AR-wt) (Homo sapiens, UniProt P10275); assay: LNCaP-AR-wt AG reporter assay (ARE firefly luciferase, agonist mode); settings: for EC50: agonist mode, −Log10(EC50 [Molar]), read-out: LNCaP-AR-wt AG pEC50 (converted); for Emax: read-out: LNCaP-AR-wt AG MAX % Stim
T1 construct: expressed in transfected cells; host or cells: LNCaP (LNCaP AR (cs))
T1 sequence (P10275 1-920): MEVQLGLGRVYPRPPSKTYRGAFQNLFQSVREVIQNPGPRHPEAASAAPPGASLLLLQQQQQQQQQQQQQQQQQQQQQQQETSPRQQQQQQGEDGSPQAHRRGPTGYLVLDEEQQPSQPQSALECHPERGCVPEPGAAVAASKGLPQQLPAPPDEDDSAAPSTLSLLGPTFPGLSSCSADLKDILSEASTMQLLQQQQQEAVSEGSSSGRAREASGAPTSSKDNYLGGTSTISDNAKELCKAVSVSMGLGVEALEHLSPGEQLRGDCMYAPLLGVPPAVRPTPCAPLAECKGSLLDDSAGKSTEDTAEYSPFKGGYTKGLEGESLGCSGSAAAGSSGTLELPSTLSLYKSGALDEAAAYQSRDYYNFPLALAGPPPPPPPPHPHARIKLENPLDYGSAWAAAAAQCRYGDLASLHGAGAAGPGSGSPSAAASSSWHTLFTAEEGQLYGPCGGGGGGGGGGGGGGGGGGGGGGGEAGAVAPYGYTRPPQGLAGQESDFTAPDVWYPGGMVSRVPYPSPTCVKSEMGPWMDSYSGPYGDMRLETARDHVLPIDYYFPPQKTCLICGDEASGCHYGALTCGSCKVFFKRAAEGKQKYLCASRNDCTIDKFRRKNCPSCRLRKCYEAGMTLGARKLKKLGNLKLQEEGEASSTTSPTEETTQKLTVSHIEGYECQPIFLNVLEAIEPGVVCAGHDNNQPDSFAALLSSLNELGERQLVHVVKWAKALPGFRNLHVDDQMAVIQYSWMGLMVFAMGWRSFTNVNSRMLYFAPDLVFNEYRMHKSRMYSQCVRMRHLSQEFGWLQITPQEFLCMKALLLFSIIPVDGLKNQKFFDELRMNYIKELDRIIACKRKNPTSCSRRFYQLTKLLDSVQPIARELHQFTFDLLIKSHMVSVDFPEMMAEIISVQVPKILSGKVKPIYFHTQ
Summary of the method: (§1)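 LNCaP stable pooled lines expressing ARE-firefly luciferase, in charcoal-stripped serum medium, were exposed to compounds; antagonist mode used agonist at 400 pM (WT) or 600 pM (F876L).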

[2] = target: T1, wild-type Androgen Receptor (AR-wt); assay: LNCaP-AR-wt ANT reporter assay (ARE firefly luciferase, antagonist mode); settings: for IC50: antagonist mode, 400 pM R-1881 challenge, −Log10(IC50 [Molar]), read-out: LNCaP-AR-wt ANT pIC50 (converted); for Emax: read-out: LNCaP-AR-wt ANT MAX % Inh
Summary of the method: (§2)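 Cells: stable LNCaP pools, AR-wt or AR-F876L, in charcoal-stripped serum. Agonist challenge for antagonist mode was 400 pM (WT) and 600 pM (F876L). Luminescence was measured after 20-24 h incubation.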

[3] = target: T2, F876L mutant Androgen Receptor (AR-F876L) (Homo sapiens, UniProt P10275, F877L); assay: LNCaP-AR-F876L AG reporter assay (ARE firefly luciferase, agonist mode); settings: for EC50: agonist mode, −Log10(EC50 [Molar]), read-out: LNCaP-AR-F876L AG pEC50 (converted); for Emax: read-out: LNCaP-AR-F876L AG MAX % Stim
T2 construct: expressed in transfected cells; host or cells: LNCaP (LNCaP F876L)
T2 sequence (P10275 1-920 F877L): T1 sequence (P10275 1-920) with F877L
Summary of the method: as §1

[4] = target: T2, F876L mutant Androgen Receptor (AR-F876L); assay: LNCaP-AR-F876L ANT reporter assay (ARE firefly luciferase, antagonist mode); settings: for Emax: read-out: LNCaP-AR-F876L ANT MAX % Inh; for IC50: read-out: LNCaP-AR-F876L ANT pIC50 (converted)
Summary of the method: as §2

[5] = maximum % stimulation (agonist response) over tested concentration range
[6] = maximum % inhibition of R1881 control response over tested concentration range

SMILES | EC50 [1] [nM] | Emax [1, 5] [%] | IC50 [2] [nM] | Emax [2, 6] [%] | EC50 [3] [nM] | Emax [3, 5] [%] | Emax [4, 6] [%] | IC50 [4] [nM] | pEC50 [1] | Emax [1] [%] | Emax [2] [%] | pEC50 [3] | Emax [3] [%] | Emax [4] [%]
Cc1cc(N2C(=O)C3(CCC3)N(c3ccc(C(=O)Nc4ccnn4C)c(F)c3)C2=S)cnc1C#N [Cpd 45, 4-[6-(6-cyano-5-methyl-3-pyridyl)-5-oxo-7-thioxo-6,8-diazaspiro[3.4]octan-8-yl]-2-fluoro-N-(2-methylpyrazol-3-yl)benzamide] | > 15100 | 0.2 | 1020 | 101 | > 15100 | 0.1 | 100 | 437 | – | – | – | – | – | –
N#Cc1ncc(N2C(=O)C3(CCC3)N(c3ccc(OC4CCOCC4)cc3)C2=S)cc1C(F)(F)F [Cpd 112, 5-[5-oxo-8-(4-tetrahydropyran-4-yloxyphenyl)-7-thioxo-6,8-diazaspiro[3.4]octan-6-yl]-3-(trifluoromethyl)pyridine-2-carbonitrile] | > 15100 | 1.1 | 355 | 100 | > 15100 | 2.7 | 97 | 331 | – | – | – | – | – | –
Cc1cc(N2C(=O)C3(CCC3)N(c3ccc(-c4ccco4)cc3)C2=S)cnc1C#N [Cpd 86, 5-[8-[4-(2-furyl)phenyl]-5-oxo-7-thioxo-6,8-diazaspiro[3.4]octan-6-yl]-3-methyl-pyridine-2-carbonitrile] | > 15100 | 0.6 | 257 | 91.7 | > 15100 | 1.3 | 93.3 | 209 | – | – | – | – | – | –
Cc1cc(N2C(=O)C3(CCC3)N(c3ccc(C(=O)Nc4nccs4)c(F)c3)C2=S)cnc1C#N [Cpd 63, 4-[6-(6-cyano-5-methyl-3-pyridyl)-5-oxo-7-thioxo-6,8-diazaspiro[3.4]octan-8-yl]-2-fluoro-N-thiazol-2-yl-benzamide] | – | – | 776 | – | – | – | – | 219 | < 4.82 | 0.7 | 68.6 | < 4.82 | 0.3 | 83.4
N#Cc1ncc(N2C(=O)C3(CCC3)N(c3ccc(C(=O)NCc4cccs4)c(F)c3)C2=S)cc1C(F)(F)F [Cpd 59, 4-[6-[6-cyano-5-(trifluoromethyl)-3-pyridyl]-5-oxo-7-thioxo-6,8-diazaspiro[3.4]octan-8-yl]-2-fluoro-N-(2-thienylmethyl)benzamide] | – | – | 1290 | – | – | – | – | 676 | < 4.82 | 1.5 | 102 | < 4.82 | 0.7 | 100
CN1CCN(Cc2ccc(N3C(=S)N(c4cnc(C#N)c(C(F)(F)F)c4)C(=O)C34CCC4)cc2)CC1 [Cpd 30, 5-[8-[4-[(4-methylpiperazin-1-yl)methyl]phenyl]-5-oxo-7-thioxo-6,8-diazaspiro[3.4]octan-6-yl]-3-(trifluoromethyl)pyridine-2-carbonitrile] | > 15100 | 0.1 | 331 | 100 | > 15100 | 0.1 | 98.8 | 162 | – | – | – | – | – | –
N#Cc1ncc(N2C(=O)C3(CCC3)N(c3ccc(C(=O)NCc4cnccn4)c(F)c3)C2=S)cc1C(F)(F)F [Cpd 54, 4-[6-[6-cyano-5-(trifluoromethyl)-3-pyridyl]-5-oxo-7-thioxo-6,8-diazaspiro[3.4]octan-8-yl]-2-fluoro-N-(pyrazin-2-ylmethyl)benzamide] | > 15100 | 0.1 | 380 | 101 | > 15100 | 0.5 | 98.9 | 219 | – | – | – | – | – | –
N#Cc1ncc(N2C(=O)C3(CCC3)N(c3ccc4[nH]ncc4c3)C2=S)cc1C(F)(F)F [Cpd 92, 5-[8-(1H-indazol-5-yl)-5-oxo-7-thioxo-6,8-diazaspiro[3.4]octan-6-yl]-3-(trifluoromethyl)pyridine-2-carbonitrile] | – | – | 631 | – | – | – | – | 257 | < 4.82 | 2.8 | 94.7 | < 4.82 | 1.3 | 98.2
CN1CCN(CCCNC(=O)c2ccc(N3C(=S)N(c4cnc(C#N)c(C(F)(F)F)c4)C(=O)C34CCC4)cc2F)CC1 [Cpd 108, 4-[6-[6-cyano-5-(trifluoromethyl)-3-pyridyl]-5-oxo-7-thioxo-6,8-diazaspiro[3.4]octan-8-yl]-2-fluoro-N-[3-(4-methylpiperazin-1-yl)propyl]benzamide] | > 15100 | 2.3 | 813 | 94.5 | > 15100 | 2.5 | 95.6 | 389 | – | – | – | – | – | –
N#Cc1ccc(N2C(=S)N(c3cnc(C#N)c(C(F)(F)F)c3)C(=O)C23CCC3)cc1 [Cpd 120, 5-[8-(4-cyanophenyl)-5-oxo-7-thioxo-6,8-diazaspiro[3.4]octan-6-yl]-3-(trifluoromethyl)pyridine-2-carbonitrile] | > 15100 | 1.2 | 363 | 100 | > 15100 | 3.9 | 98.8 | 224 | – | – | – | – | – | –
Cc1cc(N2C(=O)C3(CCC3)N(c3ccc(C(=O)Nc4ccc(F)cc4)c(F)c3)C2=S)cnc1C#N [Cpd 84, 4-[6-(6-cyano-5-methyl-3-pyridyl)-5-oxo-7-thioxo-6,8-diazaspiro[3.4]octan-8-yl]-2-fluoro-N-(4-fluorophenyl)benzamide] | > 15100 | 1 | 912 | 87.8 | > 15100 | 1.3 | 91.9 | 479 | – | – | – | – | – | –
N#Cc1ncc(N2C(=O)C3(CCC3)N(c3ccc(OC(F)(F)F)cc3)C2=S)cc1C(F)(F)F [Cpd 38, 5-[5-oxo-7-thioxo-8-[4-(trifluoromethoxy)phenyl]-6,8-diazaspiro[3.4]octan-6-yl]-3-(trifluoromethyl)pyridine-2-carbonitrile] | > 15100 | – | 398 | 100 | > 15100 | – | 99 | 229 | – | 1.2 | – | – | 0.3 | –
